# Reference: publication PMC3124785 (ACS chemical neuroscience, 2011)
# “Also recorded” adds a separate entry of the source. Read-outs that look alike come from different tables or passages of the source.
# Key:
# [1] = tested on: primary cortical neurons; conditions: for effect of GPR30 antagonist G15 on neuroprotection: G15 100 nM pre-treatment, test compounds 100 nM; for neuroprotection against OGD by BT-SERM analogs and derivatives: all 100 nM, MTT assay; for neuroprotection against OGD at lower concentrations: 1 μM or below; for effect of G15 on neuroprotection by antioxidants / sulforaphane: G15 pre-treatment (-45 min); for neuroprotection against OGD by antioxidants / sulforaphane: concentration series; for neuroprotection against OGD, initial screen of BT-SERMs: BT-SERMs 100 nM; for concentration giving equivalence to E2 (10 nM) in neuroprotection: MTT cell viability assay, 2 h OGD, 24 h reperfusion
# [2] = target: T1, ER (Homo sapiens, UniProt P03372); conditions: Fig. 1; cited from earlier work
# T1 sequence (P03372 1-595): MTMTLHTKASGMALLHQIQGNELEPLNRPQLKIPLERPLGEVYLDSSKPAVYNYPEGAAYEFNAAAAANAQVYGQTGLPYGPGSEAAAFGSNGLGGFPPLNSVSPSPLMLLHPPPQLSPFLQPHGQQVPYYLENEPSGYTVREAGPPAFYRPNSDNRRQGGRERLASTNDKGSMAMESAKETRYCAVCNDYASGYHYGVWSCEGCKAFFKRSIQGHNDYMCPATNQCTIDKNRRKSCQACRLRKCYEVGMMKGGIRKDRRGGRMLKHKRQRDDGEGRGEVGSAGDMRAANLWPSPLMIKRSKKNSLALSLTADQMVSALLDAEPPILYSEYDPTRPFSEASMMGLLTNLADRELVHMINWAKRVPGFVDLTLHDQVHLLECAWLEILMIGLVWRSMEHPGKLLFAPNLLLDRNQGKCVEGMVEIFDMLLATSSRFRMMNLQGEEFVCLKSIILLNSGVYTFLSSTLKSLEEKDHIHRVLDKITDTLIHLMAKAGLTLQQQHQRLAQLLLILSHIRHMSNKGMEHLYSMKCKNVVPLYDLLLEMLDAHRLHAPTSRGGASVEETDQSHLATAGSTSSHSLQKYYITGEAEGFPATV
# [3] = tested on: ERβ; conditions: cited from earlier work
# [4] = tested on: ERα; conditions: cited from earlier work
# [5] = target: iNOS; conditions: read-out: Ki iNOS; cited from earlier work
smiles,measurement,setting,value
"Oc1cccc(-c2cn(-c3cccc(O)c3)nn2)c1 [3,3-TDP]",effect of GPR30 antagonist G15 on neuroprotection,[1]; E2 10 nM,GPR30-dependent
same,neuroprotection against OGD by BT-SERM analogs and derivatives,[1],neuroprotective
"Oc1ccc(-c2cn(-c3ccc(O)cc3)nn2)cc1 [4,4-TDP]",neuroprotection against OGD by BT-SERM analogs and derivatives,[1],no neuroprotective activity
"Cc1cc(C(C)(C)C)c(O)c(C(C)(C)C)c1 [BHT, butylated hydroxtoluene]",neuroprotection against OGD at lower concentrations,[1]; MTT and LDH,neuroprotective
same,effect of G15 on neuroprotection by antioxidants / sulforaphane,[1],insensitive to antagonism by G15
same,neuroprotection against OGD by antioxidants / sulforaphane,[1]; MTT and LDH,neuroprotective
same,effect in OGD neurons at higher concentration,"[1]; higher concentration (10 μM), MTT and LDH",neurotoxicity; also recorded: neurotoxic
"Oc1ccc(-c2cc3ccc(O)cc3s2)cc1 [BTC, 2-(4-hydroxyphenyl)-benzo[b]thiophen-6-ol]","neuroprotection against OGD, initial screen of BT-SERMs",[1]; MTT and LDH,active
same,effect of G15 on neuroprotection by antioxidants / sulforaphane,[1],did not inhibit neuroprotection
same,ER activity in cell culture,[2],ER agonist activity
same,ER subtype selectivity,"[3]; ERβ versus ERα, Fig. 1",selectivity for ERβ
"Oc1ccc(-c2sc3cc(O)ccc3c2Oc2ccc(OCCN3CCCCC3)cc2)cc1 [DMA, [6-hydroxy-3-[4-[2-(1-piperidinyl)-ethoxy]phenoxy]-2-(4-hydroxyphenyl)]benzo[b]thiophene]","neuroprotection against OGD, initial screen of BT-SERMs",[1]; MTT and LDH,neuroprotective
same,concentration giving equivalence to E2 (10 nM) in neuroprotection,[1],28 nM
same,binding to ERα,[4],high affinity
same,binding to ERβ,[3],high affinity
"C[C@]12CC[C@@H]3c4ccc(O)cc4CC[C@H]3[C@@H]1CC[C@@H]2O [E2, 17β-estradiol]",effect of GPR30 antagonist G15 on neuroprotection,[1]; E2 10 nM,blocked neuroprotection
same,effect of ER antagonist ICI 182 780 on neuroprotection,"[1]; ICI 1 μM 45 min prior to OGD, SERMs 100 nM, E2 10 nM",block E2 mediated neuroprotection
same,greater cell death in the vehicle treated group than the E2 treated group,"[1]; OGD 2 h, recovery 24 h",30-40%
same,neuroprotection against OGD by estrogens,"[1]; estrogens 10 nM, E2-BSA 10 ng/mL, MTT and LDH",neuroprotective
"Oc1ccc(Oc2c(-c3ccc(F)cc3)sc3cc(O)ccc23)cc1 [HP-BTF, 2-(4-fluorophenyl)-3-(4-hydroxyphenoxy)benzo[b]thiophen-6-ol]",effect of GPR30 antagonist G15 on neuroprotection,[1]; E2 10 nM,GPR30-dependent
same,neuroprotection against OGD by BT-SERM analogs and derivatives,[1],neuroprotective
"COC(=O)[C@@H](N)CCCNC(N)=N[N+](=O)[O-] [L-NAME, L-nitro-arginine methyl ester]",effect of L-NAME on neuroprotection,"[1]; L-NAME 100 μM, alone or in combination with estrogen and SERMs",no significant effect
N=C(NCCC[C@H](N)C(=O)O)N[N+](=O)[O-] [N^G-nitro-L-arginine],Ki,[5],4 µM
"O=C(c1ccc(OCCN2CCCCC2)cc1)c1c(-c2ccc(O)cc2)sc2cc(O)ccc12 [Ral, raloxifene]","neuroprotection against OGD, initial screen of BT-SERMs",[1]; MTT and LDH,neuroprotective
same,concentration giving equivalence to E2 (10 nM) in neuroprotection,[1],68 nM
same,concentration giving equivalence to E2 (10 nM) in neuroprotection,[1]; listed as raloxifene,62 nM
"Cc1ccc(C(=O)c2c(-c3ccc(O)cc3)sc3cc(O)ccc23)cc1 [Tol-BTC, (6-hydroxy-2-(4-hydroxyphenyl)benzo[b]thiophen-3-yl)(p-tolyl)methanone]",neuroprotection against OGD by BT-SERM analogs and derivatives,[1],neuroprotective
Cc1c(C)c2c(c(C)c1O)CCC(C)(C(=O)O)O2 (centres unmarked) [Trolox],effect of G15 on neuroprotection by antioxidants / sulforaphane,[1],did not inhibit neuroprotection; also recorded: insensitive to antagonism by G15
same,neuroprotection against OGD by antioxidants / sulforaphane,[1]; MTT and LDH,neuroprotective; also recorded: concentration dependent neuroprotection
COc1ccc(-c2sc3cc(O)ccc3c2Oc2ccc(OCCN3CCCCC3)cc2)cc1 [arzoxifene],"neuroprotection against OGD, initial screen of BT-SERMs",[1]; MTT and LDH,inactive
"O=C(CCCCCC(=O)c1c(-c2ccc(O)cc2)sc2cc(O)ccc12)c1c(-c2ccc(O)cc2)sc2cc(O)ccc12 [bisBTChd, 1,7-bis(6-hydroxy-2-(4-hydroxyphenyl)benzo[b]thiophen-3-yl)heptane-1,7-dione]",neuroprotection against OGD by BT-SERM analogs and derivatives,[1],neuroprotective
"CC(C)c1c(-c2ccc(O)cc2)sc2cc(O)ccc12 [iPr-BTC, 2-(4-hydroxyphenyl)-3-isopropylbenzo[b]thiophen-6-ol]",neuroprotection against OGD by BT-SERM analogs and derivatives,[1],neuroprotective
C[S+]([O-])CCCCN=C=S (centres unmarked) [sulforaphane],neuroprotection against OGD at lower concentrations,[1]; MTT and LDH,neuroprotection
same,neuroprotection against OGD at lower concentrations,"[1]; MTT and LDH, listed as Sulforaphane",neuroprotective
same,effect of G15 on neuroprotection by antioxidants / sulforaphane,[1],did not inhibit neuroprotection; also recorded: insensitive to antagonism by G15
